Source: patent US20260015364A1, “PIPERAZINE BRIDGE-SUBSTITUTED HETEROCYCLIC PYRIMIDINE COMPOUND” (MEDSHINE DISCOVERY INC., priority 2022, published 2026)

Test system: GP2D cell subcutaneously transplanted tumors
Assay: In vivo pharmacodynamic experiment of GP2D tumor model
Set-up: species or system Balb/c Nude mice
Settings: p.o., BID, 28 days of administration
Description: In vivo pharmacodynamics of GP2D cell subcutaneously transplanted tumors in Balb/c Nude mice model with human colon cancer
Cell culture: Human colon cancer GP2D cells were cultured in monolayer in vitro. The culture conditions were DMEM/F12 medium+20% fetal bovine serum, and cultured in a 37° C., 5% carbon dioxide incubator. Routine digestion with trypsin-EDTA was performed twice a week for passaging. When the cell saturation reached 80% to 90% and the required quantity was reached, the cells were harvested, counted, resuspended in an appropriate amount of PBS, and mixed with matrigel at a ratio of 1:1 to obtain a cell suspension with a cell density of 25×10^6 cells/mL.
Cell inoculation: 0.2 mL (5×10^6 cells/mouse) of GP2D cells (added with Matrigel with a volume ratio of 1:1) were subcutaneously inoculated into the right back of each mouse. […]
Tumor diameters were measured twice a week with a vernier caliper. […]
The tumor inhibitory efficacy of the compound was evaluated by TGI (%) or relative tumor proliferation rate T/C (%). […] The relative tumor volume (RTV) was calculated based on the results of tumor measurements. The calculation formula is RTV=Vt/V0, where V0 is the average tumor volume measured at the beginning of administration in groups (i.e., D0), and Vt is the average tumor volume measured at a certain measurement. […]

C#Cc1c(F)ccc2cc(N)cc(-c3ncc4c(N5CC6CCC(C5)N6)nc(OC[C@@]56CC(=C)CN5C[C@@H]5C[C@@H]56)nc4c3F)c12 (single isomer, unassigned) [Compound 3]
TGI (30 mpk): 85.57% | TGI (100 mpk): 98.95%
